From the NIST ThermoML archive (doi:10.1021/je9003383)
Numbers after ± are expanded uncertainties.

Experiment: mn = molality of the nth substance listed, in mol/kg
Conditions: 293.15 K, 101 kPa, Liquid, Vibrating tube method

Row | mass density (m1 = 0.2628) [kg/m3] | mass density (m1 = 0.4689) [kg/m3] | mass density (m1 = 0.7153) [kg/m3] | mass density (m1 = 0.9675) [kg/m3] | mass density (m1 = 1.268) [kg/m3] | mass density (m1 = 1.448) [kg/m3] | Structure (SMILES) | mass density (m1 = 1.867) [kg/m3] | mass density (m1 = 4.118) [kg/m3] | mass density (m1 = 6.189) [kg/m3] | mass density (m1 = 8.119) [kg/m3] | mass density (m1 = 10.03) [kg/m3] | mass density (m1 = 12.1) [kg/m3]
1 | 999.1 ± 1 | 999.8 ± 1 | 1000.8 ± 1 | 1001.8 ± 1 | 1003.1 ± 1 | 1004 ± 1 | C1CNCCN1 [piperazine] + O |  |  |  |  |  | 
2 |  |  |  |  |  |  | CN(CCO)CCO [N-methyldiethanolamine] + O | 1014.8 ± 1 | 1029.6 ± 1 | 1038.8 ± 1 | 1044.8 ± 1 | 1048.6 ± 1.1 | 1051.6 ± 1.1
